Assays:
Type in all cases: cell-based
[1] = tested on: Reconstructed human epidermis containing melanocytes; test: TNFα and IFNγ-induced melanocyte detachment in reconstructed human epidermis, immunofluorescence of melan-A and E-cadherin; conditions: 24 h, 20 ng/ml TNFα and IFNγ, 10 μM inhibitor (FIG. 5)
Protocol: Reconstructed human epidermis containing melanocytes were stimulated 24 h with or without 20 ng/ml of TNFα and IFNγ in the presence or absence of 10 μM of MMP9 inhibitor ab142180 or SB-CT. Immunofluorescence microscopy analysis of melan-A (red) and E-cadherin (green) expression, Magnification 400×. White arrows show melanocytes that are detached from the basal layer of the epidermis.
(§1) As discussed above, TNFα and IFNγ induce MMP9 gene expression in melanocyte. Inventors used two commercially available synthetic MMP9 inhibitors, SB3CT (a […]) and a selective MMP9 inhibitor (ab142180), to assess whether such inhibition could inhibit TNFα and IFNγ effects on depigmentation. In vitro reconstructed human epidermis containing melanocytes were stimulated with these two cytokines in the presence or absence of the two different MMP9 inhibitors for 24 h (FIG. 5). The combination of TNFα and IFNγ induced melanocyte detachment and E-cadherin inhibition.
Pigmented epidermis (RHEm) are reconstructed from normal human keratinocytes (NHEK) and from normal human melanocytes (NHEM), previously isolated from preputial samples. […]
Then reading with a fluorescence microscope for the analysis of melanocytes detachment.

MMP9 gene expression = test: Real-time PCR analysis of MMP9 gene expression in reconstructed human pigmented epidermis treated with TNFα and IFNγ; conditions: 24 h, 10 ng/ml TNFα and IFNγ, 1 μM and 10 μM inhibitor, real-time PCR (FIG. 13A)
Protocol: (§2) Reconstructed human pigmented epidermis were treated 24 h with or without 10 ng/ml of TNFα and IFNγ in the presence or absence of 1 μM and 10 μM of MMP9 inhibitors ab142180 or SB-CT. (A) Real-time PCR analysis of MMP9 gene expression. Results are expressed as a fold increase above control culture. GAPDH was used as a housekeeping gene. (B) Measurement of MMP9 levels by ELISA in cell-free supernatants.
as §1
After 10 days of reconstruction (D10), reconstructed human pigmented epidermis (RHEm) are placed in 6 wells plate (NUNC reference 140675) in 2 ml of culture medium without hydrocortisone to which 10 ng/ml of interferon (IFN)-γ (R&D systems) and 10 ng/ml of “tumor necrosis factor (TNF)-α” (R&D systems) are added. A control condition without cytokines addition is performed. […]

MMP9 = MMP9 levels by ELISA in cell-free supernatants of reconstructed human pigmented epidermis treated with TNFα and IFNγ; conditions: 24 h, 10 ng/ml TNFα and IFNγ, 1 μM and 10 μM inhibitor, ELISA in cell-free supernatants (FIG. 13B)
Protocol: as §2, §1
After 10 days of reconstruction (D10), reconstructed human pigmented epidermis (RHEm) are placed in 6 wells plate (NUNC reference 140675) in 2 ml of culture medium without hydrocortisone to which 10 ng/ml of interferon (IFN)-γ (R&D systems) and 10 ng/ml of “tumor necrosis factor (TNF)-α” (R&D systems) are added. A control condition without cytokines addition is performed. Each experimental condition is performed in duplicate or triplicate.

| Compound | TNFα and IFNγ-induced melanocyte detachment and E-cadherin inhibition [1] | MMP9 expression induced by the combination of IFNγ and TNFα, gene level (MMP9 gene expression) | MMP9 expression induced by the combination of IFNγ and TNFα, protein level (MMP9 production) (MMP9) | MMP9 expression induced by the combination of IFNγ and TNFα, protein level (MMP9 production) (MMP9; listed as SB-CT) |
| --- | --- | --- | --- | --- |
| CCN(CC)Cc1cc(C)c(N(Cc2ccccc2)S(=O)(=O)c2ccc(OC)cc2)c(C(=O)NO)c1 [ab142180, 2-(N-benzyl-4-methoxyphenylsulfonamido)-5-((diethylamino)methyl)-N-hydroxy-3-methylbenzamide] | strongly inhibited | reduced | reduced | – |
| O=S(=O)(CC1CS1)c1ccc(Oc2ccccc2)cc1 (stereo not shown) [SB3CT, 2-[[(4-phenoxyphenyl)sulfonyl]methyl]-Thiirane] | strongly inhibited | reduced | reduced | reduces |

Source: US10894837B2, “MMP9 inhibitors and uses thereof in the prevention or treatment of a depigmenting disorder” (UNIVERSITE DE BORDEAUX, priority 2016, dated 2021)
